Laboratory results as given in publication PMC6738068 (British Journal of Cancer, 2019).
Where two headings read alike, the source gives them in different places.

Tests used:
[1] = test system: patients with advanced solid tumours; assay: Phase 1 safety: treatment-related adverse events (CTCAE v4.03); format: in vivo, human
Experimental: All patients who received at least one dose of CFI-400945 were included in analyses of the safety-evaluable population. Data cut-off for the safety-evaluable population was June 5, 2018. Adverse events (AEs) were assessed according to the National Cancer Institute (NCI) Common Terminology Criteria for Adverse Events (CTCAE) v4.03. Investigators determined the causal relationship of an AE as either unrelated, possibly, probably, or related to study drug. Further information is available in Supplementary Information 1d.
Investigators managed any AE until resolution, stabilization, or until the AE was considered no longer clinically significant. All AE and serious AE (SAE) were recorded in source documents and individual case report forms from the time of first dose of study drug until 30 days following the last dose of study drug.
Safety evaluations were conducted at screening and during Cycle 1 on Day 1, 2, 4, 8, 11, 15, 22, and 28. In the expansion cohort, following the run-in amendment, safety evaluations were conducted on Cycle 0 Day 1, 2, 4, 8, and 11, then as above for Cycle 1. Evaluations included pre-defined combinations of medical history, physical examination, vital signs, clinical laboratory studies, and ECOG performance status.

[2] = Plasma pharmacokinetics in phase 1 patients; format: in vivo, human
Experimental: In the expansion cohort, blood samples were collected on Day 1 for Cycle 0 and Day 28 of Cycle 1. Additional samples were drawn prior to dosing on Day 15 of subsequent cycles.
Samples were analysed in accordance with all applicable United States Federal Drug Administration (FDA) and Organisation for Economic Co-operation and Development (OECD) regulations. […] After evaporation of the extraction solvent, sample extracts were reconstituted and analysed by reversed-phase high-performance liquid chromatography using a Waters Atlantis dC18 column. The mobile phase was nebulised using heated nitrogen in a Z-spray source/interface set to electrospray positive ionisation. The ionised compounds were detected using mass spectrometry. The lower limit of quantification was 20 pg/ml. Samples were analysed at Microconstants, San Diego, CA.

PLK3 = test system: PLK3; set-up: method as in printed; settings: preclinical, ref not given; cited from earlier work
Abl [T315I] = test system: Abl [T315I]; set-up: method as in printed; settings: preclinical, ref not given; cited from earlier work
Bmx = test system: Bmx; set-up: method as in printed; settings: preclinical, ref not given; cited from earlier work
FGFR2 = test system: FGFR2; set-up: method as in printed; settings: preclinical, ref not given; cited from earlier work
AurB = test system: AurB; set-up: method as in printed; settings: preclinical, ref not given; cited from earlier work
[3] = test system: cytochrome P450 (CYP) enzyme 1A2; set-up: method as in printed; settings: preclinical testing, ref not given; cited from earlier work
CYP3A4 = test system: CYP3A4; set-up: method as in printed; settings: preclinical testing, ref not given; cited from earlier work
BCRP = test system: BCRP; set-up: method as in printed; settings: preclinical testing, ref not given; cited from earlier work
OCT1 = test system: OCT1; set-up: method as in printed; settings: preclinical testing, ref not given; cited from earlier work
OATP1B3 = test system: OATP1B3; set-up: method as in printed; settings: preclinical testing, ref not given; cited from earlier work
rodents = test system: rodents; set-up: method as in printed; settings: toxicology studies, ref not given; cited from earlier work
dogs = test system: dogs; set-up: method as in printed; settings: toxicology studies, ref not given; cited from earlier work
[4] = safety-evaluable population (n = 52)

COc1ccc2c(c1)[C@]1(C[C@H]1c1ccc3c(/C=C/c4ccc(CN5C[C@@H](C)O[C@@H](C)C5)cc4)n[nH]c3c1)C(=O)N2 [CFI-400945]
grade 2 neutropenia ([1]; 48 mg dose level): one patient | long-term tolerability: time one patient remained on treatment ([1]; 48 mg, at data cut-off): > 3 years | patients dose reduced ([1]; 64 mg): No patients | patients dose reduced ([1]; 3 patients, at 72 mg and 96 mg dose levels, recurrent neutropenia): 6% | Anorexia, treatment-related, Grade 1/2 ([1]; 3–32 mg cohort (n = 21)): 4 (19) N (%) | Anorexia, treatment-related, Grade 3/4 ([1]; 3–32 mg cohort (n = 21)): 0 (0) N (%) | Dehydration, treatment-related, Grade 1/2 ([1]; 3–32 mg cohort (n = 21)): 1 (5) N (%) | Dehydration, treatment-related, Grade 3/4 ([1]; 3–32 mg cohort (n = 21)): 0 (0) N (%) | Diarrhoea, treatment-related, Grade 1/2 ([1]; 3–32 mg cohort (n = 21)): 4 (19) N (%) | Diarrhoea, treatment-related, Grade 3/4 ([1]; 3–32 mg cohort (n = 21)): 0 (0) N (%) | Dyspepsia, treatment-related, Grade 1/2 ([1]; 3–32 mg cohort (n = 21)): 1 (5) N (%) | Dyspepsia, treatment-related, Grade 3/4 ([1]; 3–32 mg cohort (n = 21)): 0 (0) N (%) | Fatigue, treatment-related, Grade 1/2 ([1]; 3–32 mg cohort (n = 21)): 5 (24) N (%) | Fatigue, treatment-related, Grade 3/4 ([1]; 3–32 mg cohort (n = 21)): 0 (0) N (%) | Hypomagnesaemia, treatment-related, Grade 1/2 ([1]; 3–32 mg cohort (n = 21)): 0 (0) N (%) | Hypomagnesaemia, treatment-related, Grade 3/4 ([1]; 3–32 mg cohort (n = 21)): 0 (0) N (%) | Nausea, treatment-related, Grade 1/2 ([1]; 3–32 mg cohort (n = 21)): 3 (14) N (%) | Nausea, treatment-related, Grade 3/4 ([1]; 3–32 mg cohort (n = 21)): 0 (0) N (%) | Neutropenia, treatment-related, Grade 1/2 ([1]; 3–32 mg cohort (n = 21)): 0 (0) N (%) | Neutropenia, treatment-related, Grade 3/4 ([1]; 3–32 mg cohort (n = 21)): 0 (0) N (%) | Vomiting, treatment-related, Grade 1/2 ([1]; 3–32 mg cohort (n = 21)): 1 (5) N (%) | Vomiting, treatment-related, Grade 3/4 ([1]; 3–32 mg cohort (n = 21)): 0 (0) N (%) | Anorexia, All trAEs ([1]; 3–96 mg cohort (n = 52)): 10 (19) N (%) | Dehydration, All trAEs ([1]; 3–96 mg cohort (n = 52)): 3 (6) N (%) | Diarrhoea, All trAEs ([1]; 3–96 mg cohort (n = 52)): 11 (21) N (%) | Dyspepsia, All trAEs ([1]; 3–96 mg cohort (n = 52)): 3 (6) N (%) | Fatigue, All trAEs ([1]; 3–96 mg cohort (n = 52)): 19 (37) N (%) | Hypomagnesaemia, All trAEs ([1]; 3–96 mg cohort (n = 52)): 3 (6) N (%) | Nausea, All trAEs ([1]; 3–96 mg cohort (n = 52)): 14 (27) N (%) | Neutropenia, All trAEs ([1]; 3–96 mg cohort (n = 52)): 11 (21) N (%) | Vomiting, All trAEs ([1]; 3–96 mg cohort (n = 52)): 4 (8) N (%) | grade 3/4 neutropenic events occurring in Cycle 1 ([1]; 6/10 events): 60% | grade 3/4 treatment-related neutropenia, patients ([1]; 10/52 patients, all dose levels): 19% | patients with dose interruptions ([1]; 27 of 52 patients): 52% | Anorexia, treatment-related, Grade 1/2 ([1]; 48–64 mg cohort (n = 18)): 2 (11) N (%) | Anorexia, treatment-related, Grade 3/4 ([1]; 48–64 mg cohort (n = 18)): 0 (0) N (%) | Dehydration, treatment-related, Grade 1/2 ([1]; 48–64 mg cohort (n = 18)): 1 (6) N (%) | Dehydration, treatment-related, Grade 3/4 ([1]; 48–64 mg cohort (n = 18)): 0 (0) N (%) | Diarrhoea, treatment-related, Grade 1/2 ([1]; 48–64 mg cohort (n = 18)): 3 (17) N (%) | Diarrhoea, treatment-related, Grade 3/4 ([1]; 48–64 mg cohort (n = 18)): 1 (6) N (%) | Dyspepsia, treatment-related, Grade 1/2 ([1]; 48–64 mg cohort (n = 18)): 1 (6) N (%) | Dyspepsia, treatment-related, Grade 3/4 ([1]; 48–64 mg cohort (n = 18)): 0 (0) N (%) | Fatigue, treatment-related, Grade 1/2 ([1]; 48–64 mg cohort (n = 18)): 9 (50) N (%) | Fatigue, treatment-related, Grade 3/4 ([1]; 48–64 mg cohort (n = 18)): 0 (0) N (%) | Hypomagnesaemia, treatment-related, Grade 1/2 ([1]; 48–64 mg cohort (n = 18)): 1 (6) N (%) | Hypomagnesaemia, treatment-related, Grade 3/4 ([1]; 48–64 mg cohort (n = 18)): 0 (0) N (%) | Nausea, treatment-related, Grade 1/2 ([1]; 48–64 mg cohort (n = 18)): 5 (28) N (%) | Nausea, treatment-related, Grade 3/4 ([1]; 48–64 mg cohort (n = 18)): 0 (0) N (%) | Neutropenia, treatment-related, Grade 1/2 ([1]; 48–64 mg cohort (n = 18)): 1 (6) N (%) | Neutropenia, treatment-related, Grade 3/4 ([1]; 48–64 mg cohort (n = 18)): 3 (17) N (%) | Vomiting, treatment-related, Grade 1/2 ([1]; 48–64 mg cohort (n = 18)): 1 (6) N (%) | Vomiting, treatment-related, Grade 3/4 ([1]; 48–64 mg cohort (n = 18)): 1 (6) N (%) | Anorexia, treatment-related, Grade 1/2 ([1]; 72–96 mg cohort (n = 13)): 4 (31) N (%) | Anorexia, treatment-related, Grade 3/4 ([1]; 72–96 mg cohort (n = 13)): 0 (0) N (%) | Dehydration, treatment-related, Grade 1/2 ([1]; 72–96 mg cohort (n = 13)): 1 (8) N (%) | Dehydration, treatment-related, Grade 3/4 ([1]; 72–96 mg cohort (n = 13)): 0 (0) N (%) | Diarrhoea, treatment-related, Grade 1/2 ([1]; 72–96 mg cohort (n = 13)): 3 (23) N (%) | Diarrhoea, treatment-related, Grade 3/4 ([1]; 72–96 mg cohort (n = 13)): 0 (0) N (%) | Dyspepsia, treatment-related, Grade 1/2 ([1]; 72–96 mg cohort (n = 13)): 1 (8) N (%) | Dyspepsia, treatment-related, Grade 3/4 ([1]; 72–96 mg cohort (n = 13)): 0 (0) N (%) | Fatigue, treatment-related, Grade 1/2 ([1]; 72–96 mg cohort (n = 13)): 5 (38) N (%) | Fatigue, treatment-related, Grade 3/4 ([1]; 72–96 mg cohort (n = 13)): 0 (0) N (%) | Hypomagnesaemia, treatment-related, Grade 1/2 ([1]; 72–96 mg cohort (n = 13)): 2 (15) N (%) | Hypomagnesaemia, treatment-related, Grade 3/4 ([1]; 72–96 mg cohort (n = 13)): 0 (0) N (%) | Nausea, treatment-related, Grade 1/2 ([1]; 72–96 mg cohort (n = 13)): 6 (46) N (%) | Nausea, treatment-related, Grade 3/4 ([1]; 72–96 mg cohort (n = 13)): 0 (0) N (%) | Neutropenia, treatment-related, Grade 1/2 ([1]; 72–96 mg cohort (n = 13)): 0 (0) N (%) | Neutropenia, treatment-related, Grade 3/4 ([1]; 72–96 mg cohort (n = 13)): 7 (54) N (%) | Vomiting, treatment-related, Grade 1/2 ([1]; 72–96 mg cohort (n = 13)): 1 (8) N (%) | Vomiting, treatment-related, Grade 3/4 ([1]; 72–96 mg cohort (n = 13)): 0 (0) N (%) | median time for neutrophils to recover to grade ≤1 ([1]; in vivo): 7 days | median time to first grade 3/4 neutropenic event ([1]; in vivo): 18 days | time for neutrophils to recover to grade ≤1, range ([1]; in vivo): 6 to 14 days | time to first grade 3/4 neutropenic event, range ([1]; in vivo): 14 to 126 days | treatment-related AEs leading to study discontinuation ([1]; one DLT at 72 mg, one DLT in 64 mg cohort): two patients | treatment-related anorexia, patients [1, 4]: 19% | treatment-related dehydration, patients [1, 4]: 6% | treatment-related diarrhoea, patients [1, 4]: 21% | treatment-related dyspepsia, patients [1, 4]: 6% | treatment-related fatigue, patients [1, 4]: 37% | treatment-related hypomagnesaemia, patients [1, 4]: 6% | treatment-related neutropenia, patients [1, 4]: 21% | treatment-related vomiting, patients [1, 4]: 8% | dose proportionality of exposure ([2]; 3-96 mg): generally dose proportional | exposure at Day 28 higher than exposure at Day 1, average ([2]; across all dose levels): 37% | AUC(0-t) ([2]; human, plasma, oral, 64 mg, Day 1, read-out: AUC0–24 h): 428 ng·h/mL | Cmax ([2]; human, plasma, oral, 64 mg, Day 1, read-out: average Cmax): 37 ng/mL | AUC(0-t) ([2]; human, plasma, oral, 64 mg, after 28 days of dosing, read-out: AUC0–24 h): 564 ng·h/mL | Cmax ([2]; human, plasma, oral, 64 mg, after 28 days of dosing, read-out: average Cmax): 44 ng/mL | AUC(0-t) ([2]; human, plasma, oral, Day 1, read-out: AUC0–24 h values associated with grade 3/4 neutropenia): > 400 ng·h/mL | Cmax ([2]; human, plasma, oral, Day 1, read-out: Cmax values associated with grade 3/4 neutropenia): ≥ 38 ng/mL | half-life ([2]; human, plasma, oral, 64 mg, Day 1, read-out: half-life (t1/2) (converted)): 9 h | time to maximum plasma concentration (Cmax) after dosing ([2]; oral, fasting state): 2 to 4 h | IC50 (PLK3): > 50000 nM | IC50 (Abl [T315I]): < 100 nM | IC50 (Bmx): < 100 nM | IC50 (FGFR2): < 100 nM | IC50 (AurB): < 100 nM | induction of CYP1A2 [3]: inducer | time-dependent inhibition of CYP3A4 (CYP3A4): time-dependent inhibitor | inhibition of BCRP (BCRP): inhibitor | inhibition of OCT1 (OCT1): inhibitor | inhibition of OATP1B3 (OATP1B3): inhibitor | primary toxicities (rodents): haematopoietic effects (myeloid suppression, bone marrow hypocellularity) | primary toxicities (dogs): haematopoietic effects (myeloid suppression, bone marrow hypocellularity)
